Legend:
NFAT = NFAT reporter (secreted alkaline phosphatase) after cross-linking chimeric receptor TAC/TAC/Z with anti-TAC mAb in TAg Jurkat cells; type: cell-based, human; details: addition of 1 ng/ml FK506; TTZ receptor, bound anti-TAC mAb
Description: The plasmid pSXNeo/IL2 (IL2-SX) (FIG. 1), which contains the placental secreted alkaline phosphatase gene under the control of human IL-2 promoter (−325 to +47; MCB(86) 6, 3042), and related plasmid variants (i.e. NFAT-SX, NF B-SX, OAP/Oct1-SX, and AP-1-SX) in which the reporter gene is under the transcriptional control of the minimal IL-2 promoter (−325 to −294 and -72 to −47) combined with synthetic oligomers containing various promoter elements (i.e. NFAT, NKB, OAP/Oct-1, and AP1, respectively), were made by three piece ligations of 1) pPL/SEAP (Berger, et al., Gene (1988) 66, 1) cut with SspI and HindIII; 2) pSV2/Neo (Southern and Berg, J. Mol. Appl. Genet. (1982) 1, 332) cut with NdeI, blunted with Klenow, then cut with Pvul; and 3) various promoter-containing plasmids (i.e. NFAT-CD8, B-CD8, cx121acZ-Oct-1, AP1-LUCIF3H, or cx151L2) described below) cut with PvuI and HindIII, NFAT-CD8 contains 3 copies of the NFAT-binding site (−286 to […]; Genes and Dev. (1990) 4, 1823) and cx12lacZ-Oct contains 4 copies of the OAP/Oct-1(ARRE-1) binding site (MCB, (1988) 8, 1715) from the human IL-2 enhancer; B-CD8 contains 3 copies of the NFB binding site from the murine light chain (EMBO (1990) 9, 4425) and AP1-LUCIF3H contains 5 copies of the AP-1 site (5′-TGA-[…]-3′ [SEQ ID NO:3]) from the metallothionen promoter. […]

MZF3E [1] = molecular target: T1, MZF3E (Mus musculus, UniProt P24161); experiment: NFAT-SEAP reporter via myristoylated chimeric CD3/FKBP12 (MZF3E) receptor in Jurkat T cells; type: cell-based, human
T1 construct: expressed in transfected cells
T1 sequence (P24161 with tags, fused parts or gaps limits assumed): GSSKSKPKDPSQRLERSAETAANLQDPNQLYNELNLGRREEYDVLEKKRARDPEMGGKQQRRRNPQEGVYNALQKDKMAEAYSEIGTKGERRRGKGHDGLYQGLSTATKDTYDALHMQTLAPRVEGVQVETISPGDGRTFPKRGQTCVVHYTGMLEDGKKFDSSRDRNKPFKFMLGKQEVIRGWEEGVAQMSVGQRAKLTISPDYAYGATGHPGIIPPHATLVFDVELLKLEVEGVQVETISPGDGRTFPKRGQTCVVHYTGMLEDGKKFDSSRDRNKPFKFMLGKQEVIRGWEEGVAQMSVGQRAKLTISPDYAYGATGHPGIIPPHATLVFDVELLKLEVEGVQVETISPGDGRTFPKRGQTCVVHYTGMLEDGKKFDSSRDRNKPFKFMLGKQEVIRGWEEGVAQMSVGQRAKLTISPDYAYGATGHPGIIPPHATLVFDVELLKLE

[2] = Immunosuppression / toxicity in cell culture; type: cell-based
[3] = system: GF2E or GF3E with NF3V1E (G5E4TCAT reporter); experiment: Transcriptional induction: CAT activity in Jurkat TAg cells transfected with GAL4-FKBP and FKBP-VP16 chimeras; type: cell-based, human; details: 1 μM ligand, 12 hours; samples 5 (GF2E, NF3V1E) and 6 (GF3E, NF3V1E) in the presence of ligand
Chain of GF2E or GF3E with NF3V1E (G5E4TCAT reporter) (P62942 2-108 limits assumed): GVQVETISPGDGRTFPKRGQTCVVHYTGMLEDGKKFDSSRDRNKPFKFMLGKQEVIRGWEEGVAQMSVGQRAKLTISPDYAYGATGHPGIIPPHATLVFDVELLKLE
Method: Jurkat TAg cells were transfected with the indicated constructs (5 μg of each construct) by electroporation (960 μF, 250 v). After 24 hours, the cells were resuspended in fresh media and aliquoted. […] After 12 hours, the cells were washed and cellular extracts were prepared by repeated freeze-thaw. Chloramphenicol acetyltransferase (CAT) activity was measured by standard protocols. Molecular Cloning: A Laboratory Manual, Sambrook et al. eds. (1989) CSH Laboratory, pp. 16-59 ff. […]

MZF3E [4] = molecular target: T1, MZF3E; experiment: Protein-tyrosine phosphorylation and kinase recruitment in Jurkat cells stably transfected with MZF3E; type: cell-based, human
Method: Tyrosine phosphorylation after treatment of cells with either anti-CD3 MAb or FK1012 was detected using monoclonal alpha-phosphotyrosine antibodies. Whole cell lysates were analysed at varying times after stimulation.

MZF3Eflu / MZF3Eflag = experiment: Coimmunoprecipitation of epitope-tagged chimeras (anti-Flag agarose) in Jurkat T cells; type: cell-based, human
Chain of MZF3Eflu / MZF3Eflag (P62942 2-108 limits assumed): as above

TAg-Jurkat cells = experiment: Inhibitory activity of drugs on ionomycin/PMA-stimulated TAg-Jurkat cells (β-galactosidase, MUG fluorescence); type: cell-based, human
Method: Ionomycin (1 μm) and PMA (25 ng/ml) were added to 10^5 TAg-Jurkat cells. In addition, titrations of the various drugs were added. After 5 hours the cells were lysed in mild detergent (i.e. Triton X-100) and the extracts were incubated with the β-galactosidase substrate, MUG (methyl galactosidyl umbelliferone) for 1 hour. A glycine/EDTA stop buffer was added and the extracts assayed for fluorescence. Each data point obtained was the average of two samples and the experiment was performed several times with similar results.

Compound: C=CC[C@@H]1/C=C(\C)C[C@H](C)C[C@H](OC)[C@H]2O[C@@](O)(C(=O)C(=O)N3CCCC[C@H]3C(=O)O[C@H](/C(C)=C/[C@@H]3CC[C@@H](O)[C@H](OC)C3)[C@H](C)[C@@H](O)CC1=O)[C@H](C)C[C@@H]2OC [FK506, reference compound]
- alkaline phosphatase reporter activity due to NFAT (NFAT): dropped all activity due to NFAT to background levels
- FK1012B stimulation of NFAT reporter (MZF3E [1]; addition of 1 ng/ml FK506): dropped all stimulations to near background levels

Compound: CO[C@H]1C[C@@H](C)C/C(C)=C/[C@@H](CCOC(=O)NCc2ccccc2)C(=O)C[C@H](O)[C@@H](C)[C@@H](/C(C)=C/[C@@H]2CC[C@@H](O)[C@H](OC)C2)OC(=O)[C@@H]2CCCCN2C(=O)C(=O)[C@]2(O)O[C@H]1[C@@H](OC)C[C@H]2C [FK506-M]
- termination of FK1012-induced signaling (deaggregation) (MZF3E [1]): FK1012-induced signaling can be terminated
- toxicity [2]: nontoxic

Compound: FK1012-A (p-xylylenediamine bridge) [FK1012A]
- CAT activity [3]: CAT activity present as expected
- recruitment of kinase activity to the zeta-chain (in vitro kinase assay after immunoprecipitation) (MZF3E [4]): resulted in the recruitment of kinase activity to the zeta-chain
- dimerization of FKBP monomer constructs MZF1Eflu and MZF1Eflag (MZF3Eflu / MZF3Eflag): also dimerized by FK1012A
- coimmunoprecipitation of MZF3Eflu with MZF3Eflag (MZF3Eflu / MZF3Eflag; 1 μM, Jurkat T cells coexpressing both chimeras): MZF3Eflag interacts with MZF3Eflu and is coimmunoprecipitated

Compound: FK1012-B (diaminodecane-1,10 bridge) [FK1012B]
- stimulation by the compound itself (TAg-Jurkat cells; control experiment): not stimulatory by itself
- mitogen activity (TAg-Jurkat cells; ionomycin 1 μm + PMA 25 ng/ml, highest concentration 5 μg/ml): appears to augment mitogen activity slightly
